Assays:
[1] = target: Nav1.4 (CHO-K1) (Cricetulus griseus, UniProt A0A9J7H6F9); format: cell-based, Chinese Hamster
[2] = tested on: Nav1.4 and 1.5 (L6); format: cell-based, rat
[3] = tested on: Nav1.9 and Nav1.7 (SH-SY5Y); format: cell-based, Human
[4] = tested on: Nav1.8 (SK-N-BE2C); format: cell-based, human
[5] = tested on: Nav1.2 and Nav1.7 (PC12); format: cell-based, rat
[6] = target: T1, hNav1.7 (Homo sapiens, UniProt Q15858); test: cell-based
[7] = target: T1, hNav1.7; test: Electrophysiological assay, whole cell voltage clamp; format: cell-based; parameters: expressed in transfected cells; host or cells: HEK293; settings: for Ki: affinity for the inactivated state of hNav1.7; for Kd: affinity for the rested/closed state of hNav1.7, holding potential −120 mV, read-out: Kr
Protocol: HEK293 Cells expressing hNav1.7 were cultured in DMEM growth media (Gibco) with 0.5 mg/mL G418, +/−1% PSG, and 10% heat-inactivated fetal bovine serum at 37° C. and 5% CO2. For electrophysiological recordings, cells were plated on 10 mm dishes.
Whole cell recordings were examined by established methods of whole cell voltage clamp (Bean et al., op. cit.) using an Axopatch 200B amplifier and Clampex software (Axon Instruments, Union City, Calif.). All experiments were performed at ambient temperature. Electrodes were fire-polished to resistances of 2-4 Mohms Voltage errors and capacitance artifacts were minimized by series resistance compensation and capacitance compensation, respectively. Data were acquired at 40 kHz and filtered at 5 kHz. The external (bath) solution consisted of: NaCl (140 mM), KCl (5 mM), CaCl2 (2 mM), MgCl2 (1 mM), HEPES (10 mM) at pH 7.4. The internal (pipette) solution consisted of (in mM): NaCl (5), CaCl2 (0.1), MgCl2 (2), CsCl (10), CsF (120), HEPES (10), EGTA (10), at pH 7.2.
To estimate the steady-state affinity of compounds for the resting and inactivated state of the channel (Kr and Ki, respectively), 12.5 ms test pulses to depolarizing voltages from −60 to +90 m V from a holding potential of −120 m V was used to construct current-voltage relationships (1-V curves). A voltage near the peak of the IV-curve (−30 to 0 m V) was used as the test pulse throughout the remainder of the experiment. Steady-state inactivation (availability) curves were then constructed by measuring the current activated during a 8.75 ms test pulse following 1 second conditioning pulses to potentials ranging from −120 to −10 mV.
The steady-state voltage-dependence of binding of a compound to a voltage-gated sodium channel was determined by measuring the blockage of the ionic current at two holding potentials. Binding to rested-state channels was determined by using a holding potential of −120 mV, so that maximal availability was achieved. Binding to inactivated-state channels was evaluated at a holding potential such that only about 10% of the channels were available to open. The membrane potential was held at this voltage for at least 10 seconds so that drug binding could equilibrate.
The apparent dissociation constant at each voltage was calculated with the equation:
[formula] where Kd is the dissociation constant (either Kr or Ki), and [Drug] is the concentration of the test compound.

[8] = Plasma concentration after oral dosing in the CFA model; format: in vivo, rats
Protocol: Each enantiomer was dosed at 10, 30, 100 or 200 mg/Kg. The plasma concentration achieved with each dose was also determined and the reversal of pain response (as the % increase from baseline threshold) is plotted as a function of plasma concentration.

[9] = tested on: chronic constriction injury neuropathic pain; test: Neuropathic pain model; chronic constriction injury (CCI); format: in vivo; settings: topical ointment containing 2% (w/v)

T1 sequence (Q15858 whole entry): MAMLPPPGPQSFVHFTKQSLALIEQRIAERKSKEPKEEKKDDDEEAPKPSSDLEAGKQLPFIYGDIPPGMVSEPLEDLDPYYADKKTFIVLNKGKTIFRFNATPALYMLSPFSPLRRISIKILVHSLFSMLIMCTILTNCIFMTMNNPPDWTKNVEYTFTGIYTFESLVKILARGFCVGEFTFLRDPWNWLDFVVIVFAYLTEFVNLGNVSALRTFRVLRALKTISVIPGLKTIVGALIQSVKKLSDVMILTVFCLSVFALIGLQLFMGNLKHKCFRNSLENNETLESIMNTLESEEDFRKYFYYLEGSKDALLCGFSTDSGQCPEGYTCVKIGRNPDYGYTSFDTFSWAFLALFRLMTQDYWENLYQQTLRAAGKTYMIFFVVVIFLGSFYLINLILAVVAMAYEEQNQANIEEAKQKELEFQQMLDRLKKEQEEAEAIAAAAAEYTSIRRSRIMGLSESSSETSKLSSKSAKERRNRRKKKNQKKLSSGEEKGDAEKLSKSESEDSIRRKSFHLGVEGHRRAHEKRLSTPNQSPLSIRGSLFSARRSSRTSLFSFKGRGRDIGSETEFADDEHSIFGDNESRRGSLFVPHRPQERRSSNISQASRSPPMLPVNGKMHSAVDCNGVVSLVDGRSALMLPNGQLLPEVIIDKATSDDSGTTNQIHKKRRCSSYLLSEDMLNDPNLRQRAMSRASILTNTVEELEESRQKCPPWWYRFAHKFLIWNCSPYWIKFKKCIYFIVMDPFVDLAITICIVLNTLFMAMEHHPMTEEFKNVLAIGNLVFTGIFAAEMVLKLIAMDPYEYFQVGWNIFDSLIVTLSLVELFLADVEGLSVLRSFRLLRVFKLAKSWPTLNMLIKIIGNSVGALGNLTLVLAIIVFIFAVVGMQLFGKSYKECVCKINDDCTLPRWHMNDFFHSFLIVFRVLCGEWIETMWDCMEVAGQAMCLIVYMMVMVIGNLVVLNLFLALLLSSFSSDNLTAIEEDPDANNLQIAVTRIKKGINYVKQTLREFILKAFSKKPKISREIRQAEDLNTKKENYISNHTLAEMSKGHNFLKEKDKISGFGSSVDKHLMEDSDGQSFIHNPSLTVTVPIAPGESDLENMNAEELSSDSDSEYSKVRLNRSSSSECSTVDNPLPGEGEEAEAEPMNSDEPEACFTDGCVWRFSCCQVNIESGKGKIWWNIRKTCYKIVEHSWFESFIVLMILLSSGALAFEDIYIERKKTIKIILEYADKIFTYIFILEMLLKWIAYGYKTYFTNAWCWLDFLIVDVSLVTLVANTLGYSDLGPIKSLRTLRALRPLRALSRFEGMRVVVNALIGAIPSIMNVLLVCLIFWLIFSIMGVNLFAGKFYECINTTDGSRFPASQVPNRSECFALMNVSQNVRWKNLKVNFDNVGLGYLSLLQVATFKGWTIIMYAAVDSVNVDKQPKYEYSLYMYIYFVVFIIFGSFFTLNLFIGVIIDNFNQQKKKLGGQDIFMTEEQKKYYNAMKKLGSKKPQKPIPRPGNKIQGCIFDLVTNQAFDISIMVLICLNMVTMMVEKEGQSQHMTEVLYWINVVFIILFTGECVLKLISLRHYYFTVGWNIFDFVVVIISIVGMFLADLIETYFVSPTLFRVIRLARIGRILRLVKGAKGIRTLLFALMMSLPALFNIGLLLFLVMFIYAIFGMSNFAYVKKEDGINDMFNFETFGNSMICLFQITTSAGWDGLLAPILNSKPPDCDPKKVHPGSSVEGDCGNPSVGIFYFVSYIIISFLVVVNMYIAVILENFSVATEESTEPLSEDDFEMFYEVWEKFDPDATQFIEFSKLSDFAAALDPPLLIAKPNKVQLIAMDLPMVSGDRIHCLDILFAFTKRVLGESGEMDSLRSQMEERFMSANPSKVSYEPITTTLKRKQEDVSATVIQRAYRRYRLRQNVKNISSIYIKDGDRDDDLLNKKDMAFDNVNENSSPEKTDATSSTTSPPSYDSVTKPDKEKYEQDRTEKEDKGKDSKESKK
Chain of Nav1.4 (CHO-K1) (A0A9J7H6F9 1-1930): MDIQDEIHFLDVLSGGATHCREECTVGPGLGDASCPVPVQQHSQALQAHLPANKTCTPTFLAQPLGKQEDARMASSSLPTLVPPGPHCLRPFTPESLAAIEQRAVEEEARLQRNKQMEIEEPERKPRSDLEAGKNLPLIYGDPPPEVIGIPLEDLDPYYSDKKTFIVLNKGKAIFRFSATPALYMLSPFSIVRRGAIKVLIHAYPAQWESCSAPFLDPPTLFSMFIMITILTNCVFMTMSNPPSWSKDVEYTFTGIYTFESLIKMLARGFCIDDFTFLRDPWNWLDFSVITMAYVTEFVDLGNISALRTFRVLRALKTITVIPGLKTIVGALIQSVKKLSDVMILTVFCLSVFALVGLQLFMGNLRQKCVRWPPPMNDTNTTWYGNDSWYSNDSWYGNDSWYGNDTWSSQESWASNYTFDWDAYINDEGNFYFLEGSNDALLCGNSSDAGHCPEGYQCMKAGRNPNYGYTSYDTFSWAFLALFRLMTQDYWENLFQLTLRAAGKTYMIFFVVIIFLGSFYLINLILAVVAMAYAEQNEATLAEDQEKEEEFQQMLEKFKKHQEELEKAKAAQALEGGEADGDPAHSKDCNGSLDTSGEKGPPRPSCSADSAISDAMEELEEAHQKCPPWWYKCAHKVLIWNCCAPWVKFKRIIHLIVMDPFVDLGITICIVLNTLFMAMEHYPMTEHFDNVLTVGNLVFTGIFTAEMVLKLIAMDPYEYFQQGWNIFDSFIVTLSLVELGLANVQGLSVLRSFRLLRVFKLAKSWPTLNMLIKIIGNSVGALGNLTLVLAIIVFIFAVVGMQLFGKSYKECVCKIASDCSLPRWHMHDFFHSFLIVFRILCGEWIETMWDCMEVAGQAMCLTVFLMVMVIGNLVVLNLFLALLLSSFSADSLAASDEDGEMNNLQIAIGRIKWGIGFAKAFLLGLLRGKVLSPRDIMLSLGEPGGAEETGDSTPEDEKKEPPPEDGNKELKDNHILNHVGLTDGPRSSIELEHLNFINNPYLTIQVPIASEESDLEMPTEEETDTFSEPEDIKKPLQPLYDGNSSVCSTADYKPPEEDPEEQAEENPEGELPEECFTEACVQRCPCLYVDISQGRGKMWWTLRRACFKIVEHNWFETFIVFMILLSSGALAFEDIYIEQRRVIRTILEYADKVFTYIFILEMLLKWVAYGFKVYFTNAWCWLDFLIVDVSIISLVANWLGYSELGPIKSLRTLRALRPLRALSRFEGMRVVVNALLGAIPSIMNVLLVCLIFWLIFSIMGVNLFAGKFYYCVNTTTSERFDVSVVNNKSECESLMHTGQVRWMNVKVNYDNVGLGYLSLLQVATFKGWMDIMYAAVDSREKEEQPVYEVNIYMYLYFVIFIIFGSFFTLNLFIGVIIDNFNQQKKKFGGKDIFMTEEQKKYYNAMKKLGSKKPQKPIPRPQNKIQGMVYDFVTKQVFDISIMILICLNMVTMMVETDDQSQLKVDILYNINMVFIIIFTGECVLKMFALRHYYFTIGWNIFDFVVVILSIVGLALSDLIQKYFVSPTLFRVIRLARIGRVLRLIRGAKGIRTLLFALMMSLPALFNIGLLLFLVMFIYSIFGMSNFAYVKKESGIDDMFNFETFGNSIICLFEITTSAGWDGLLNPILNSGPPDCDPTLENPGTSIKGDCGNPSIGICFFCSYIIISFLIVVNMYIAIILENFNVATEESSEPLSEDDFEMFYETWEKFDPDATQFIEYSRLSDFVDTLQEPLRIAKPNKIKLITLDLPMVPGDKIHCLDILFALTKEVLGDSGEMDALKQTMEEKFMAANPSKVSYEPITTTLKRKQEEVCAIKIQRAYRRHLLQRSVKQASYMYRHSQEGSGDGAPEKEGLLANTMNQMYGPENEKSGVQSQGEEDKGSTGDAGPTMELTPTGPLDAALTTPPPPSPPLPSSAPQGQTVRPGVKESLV

Row | Structure (SMILES) | block of [14C] guanidine influx by TTX [1] | block of [14C] guanidine influx by TTX [2] | block of [14C] guanidine influx by TTX [3] | block of [14C] guanidine influx by TTX [4] | block of [14C] guanidine influx by TTX [5] | IC50 [6] [nM] | Ki [7] [nM] | Kd [7] [nM] | excess of the inactive (R)-enantiomer resulting from use of the racemate ([8]; oral dosing) [fold] | plasma concentration at an equivalent dose level ([8]; oral dosing 10, 30, 100 or 200 mg/Kg, compared with the (S)-enantiomer) | reversal of pain responses, percent increase from baseline [9]
1 | NC1=N[C@H](O)[C@H]2[C@H]3O[C@]4(O)O[C@@H]([C@@H](O)[C@@]2(N1)[C@@H]4O)[C@]3(O)CO [TTX, tetrodotoxin] | completely blocked using TTX. | partially blocked by TTX at 100 nM | background was partially blocked | TTX partially blocked influx | guanidine influx was completely |  |  |  |  |  | 
2 | O=C1N(Cc2ccc(C(F)(F)F)o2)c2ccccc2C12COc1cc3c(cc12)OCO3 (racemic) [(I), 1′-{[5-(trifluoromethyl)furan-2-yl]methyl}spiro[furo[2,3-f][1,3]benzodioxole-7,3′-indol]-2′(1′H)-one] |  |  |  |  |  | 7 | 142 | > 10000 |  |  | 
3 | O=C1N(Cc2ccc(C(F)(F)F)o2)c2ccccc2[C@@]12COc1cc3c(cc12)OCO3 [(I-R), (R)-1′-{[5-(trifluoromethyl)furan-2-yl]methyl}spiro[furo[2,3-f][1,3]benzodioxole-7,3′-indol]-2′(1H)-one] |  |  |  |  |  | 4200 | 869 | > 10000 | ~10 | much higher plasma concentration | no significant increase from baseline
